Test results taken from US8338422B2, “Indolin-2-ones and aza-indolin-2-ones” (Janssen Pharmaceutica NV, priority 2007, dated 2012).

Columns and labels:
PLK4 (h) = PLK4 (h) (Homo sapiens, UniProt O00444); assay: PLK-4 human kinase assay (SPA); assay type: biochemical; conditions: for IC50: read-out: PLK4 pIC50 (converted)
Method in brief: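 Radiometric readout: 33P-labelled peptide captured on streptavidin SPA beads after EDTA stop, imaged by Leadseeker. Reaction ran 60 min at room temperature in Hepes pH 8.0 buffer. It contained 1 μM ATP with 2 nM [γ-33P]ATP, 10 μM biotinylated peptide and PLK4 (h) at 19 μg/ml.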

AuroraB (h) = AuroraB (h) (Homo sapiens, UniProt Q96GD4); assay: Aurora-B human kinase assay (SPA); assay type: biochemical; conditions: for IC50: read-out: AuroraB pIC50 (converted)
Method in brief: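 Scintillation proximity assay: AuroraB (h) at 0.5 μg/ml with 3 μM biotinylated peptide, 0.5 μM ATP and 2.2 nM [γ-33P]ATP in 60 mM Hepes pH 7.5, 3 mM MgCl2, 3 mM MnCl2, 2 mM DTT. 60 min at room temperature, EDTA stop, streptavidin PVT beads read on Leadseeker.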

GSK3β (h) = GSK3β (h) (Homo sapiens, UniProt P49841); assay: GSK-3β human kinase assay (SPA); assay type: biochemical; conditions: for IC50: read-out: GSK3B pIC50 (converted)
Method in brief: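 Radiometric SPA read-out: after EDTA stop, biotinylated 33P-labelled peptide bound streptavidin PVT beads and was imaged on Leadseeker. Reaction: 60 min, room temperature, GSK3β (h) at 1 μg/ml, 1 μM substrate peptide, 1 μM ATP with 2 nM [γ-33P]ATP, Tris pH 7.4/MgCl2/DTT buffer.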

CDK1/CyclinB (h) = CDK1/CyclinB (h) (Homo sapiens, UniProt P06493); assay: CDK1/CyclinB human kinase assay (FRET); assay type: biochemical; conditions: for IC50: read-out: CDK1 pIC50 (converted)
Method in brief: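 Z'-LYTE FRET format: 0.2 μg/ml enzyme with 2 μM Ser/Thr peptide 12 and 10 μM ATP in 50 mM Hepes pH 7.5, 10 mM MgCl2, 1 mM EGTA, 0.01% Brij-35, 60 min at room temperature. Protease development 60 min; coumarin/fluorescein emission ratio (460/538 nm, excitation 390 nm) reports phosphorylation.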

A2780 = assay: Cellular proliferation assay (Alamar blue), A2780; assay type: cell-based; conditions: A2780 cells, 72 hours with compound, 10% FCS; for IC50: Homo sapiens, A2780, 72 h, read-out: pIC50 A2780 (converted)
Method in brief: (§1)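 Proliferation was assessed over 72 h of compound treatment, following 24 h of seeding without compound, under 10% FCS, 37° C. and 5% CO2. Fluorescent resazurin product was measured and compared with control cells.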

HCT-116 = assay: Cellular proliferation assay (Alamar blue), HCT-116; assay type: cell-based; conditions: HCT-116 cells, 72 hours with compound, 10% FCS; for IC50: Homo sapiens, HCT-116, 72 h, read-out: pIC50 HCT-116 (converted)
Method in brief: as §1

H1299 = assay: Cellular proliferation assay (Alamar blue), H1299; assay type: cell-based; conditions: H1299 cells, 72 hours with compound, 10% FCS; for IC50: Homo sapiens, NCI-H1299, 72 h, read-out: pIC50 H1299 (converted)
Method in brief: as §1

MDA/MB231 = assay: Cellular proliferation assay (Alamar blue), MDA/MB231; assay type: cell-based; conditions: MDA/MB231 cells, 72 hours with compound, 10% FCS; for IC50: Homo sapiens, MDA-MB-231, 72 h, read-out: pIC50 MDA/MB231 (converted)
Method in brief: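 Viable cell counts come from an Alamar blue assay: resazurin 9 μg/ml plus 90 μM K-ferrocyanide and 90 μM K-ferricyanide, incubated 24 h for MDA-MB-231 or 4 h for H460, with fluorescence read at 544/590 nm. Compound treatment lasted 72 h in 10% FCS after 24 h seeding.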

U87MG = assay: Cellular proliferation assay (Alamar blue), U87MG; assay type: cell-based; conditions: U87MG cells, 72 hours with compound, 10% FCS; for IC50: Homo sapiens, U-87 MG, 72 h, read-out: pIC50 U87MG (converted)
Method in brief: as §1

PC-3 = assay: Cellular proliferation assay (Alamar blue), PC-3; assay type: cell-based; conditions: PC-3 cells, 72 hours with compound, 10% FCS; for IC50: Homo sapiens, PC-3, 72 h, read-out: pIC50 PC-3 (converted)
Method in brief: as §1

PLK4 (h), sequence (O00444 whole entry): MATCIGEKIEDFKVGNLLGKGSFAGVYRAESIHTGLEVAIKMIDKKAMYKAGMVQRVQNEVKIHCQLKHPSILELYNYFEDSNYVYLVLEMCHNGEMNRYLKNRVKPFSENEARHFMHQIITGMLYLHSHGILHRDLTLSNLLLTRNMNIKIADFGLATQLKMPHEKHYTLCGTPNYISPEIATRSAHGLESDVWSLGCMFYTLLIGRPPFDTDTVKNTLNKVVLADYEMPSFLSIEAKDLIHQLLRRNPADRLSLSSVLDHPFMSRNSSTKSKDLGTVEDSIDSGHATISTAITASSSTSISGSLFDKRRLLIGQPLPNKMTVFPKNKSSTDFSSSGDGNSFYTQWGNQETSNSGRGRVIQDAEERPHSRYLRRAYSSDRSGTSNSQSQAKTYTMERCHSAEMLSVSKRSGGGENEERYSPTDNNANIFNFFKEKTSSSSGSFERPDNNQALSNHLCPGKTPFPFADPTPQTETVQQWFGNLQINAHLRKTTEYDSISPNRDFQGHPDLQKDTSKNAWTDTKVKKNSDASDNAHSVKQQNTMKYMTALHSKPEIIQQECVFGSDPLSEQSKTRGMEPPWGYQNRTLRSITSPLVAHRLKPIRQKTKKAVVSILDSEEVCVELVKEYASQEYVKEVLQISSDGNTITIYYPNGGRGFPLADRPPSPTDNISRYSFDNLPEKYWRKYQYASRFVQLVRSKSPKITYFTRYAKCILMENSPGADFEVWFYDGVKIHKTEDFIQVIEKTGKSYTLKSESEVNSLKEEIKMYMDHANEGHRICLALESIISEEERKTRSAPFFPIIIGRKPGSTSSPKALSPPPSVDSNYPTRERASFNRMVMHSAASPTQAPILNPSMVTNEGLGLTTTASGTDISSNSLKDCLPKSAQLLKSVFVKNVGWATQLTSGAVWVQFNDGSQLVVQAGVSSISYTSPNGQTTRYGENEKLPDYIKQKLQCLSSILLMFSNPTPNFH
AuroraB (h), sequence (Q96GD4 whole entry): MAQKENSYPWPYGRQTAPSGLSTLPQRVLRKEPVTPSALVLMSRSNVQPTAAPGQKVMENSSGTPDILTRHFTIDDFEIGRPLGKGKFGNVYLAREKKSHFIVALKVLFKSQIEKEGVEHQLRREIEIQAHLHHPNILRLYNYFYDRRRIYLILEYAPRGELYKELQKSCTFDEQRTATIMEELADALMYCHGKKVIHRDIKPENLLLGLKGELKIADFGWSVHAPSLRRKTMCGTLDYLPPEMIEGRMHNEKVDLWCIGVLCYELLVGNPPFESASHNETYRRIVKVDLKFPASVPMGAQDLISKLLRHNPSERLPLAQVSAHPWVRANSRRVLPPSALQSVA
CDK1/CyclinB (h), sequence (P06493 whole entry): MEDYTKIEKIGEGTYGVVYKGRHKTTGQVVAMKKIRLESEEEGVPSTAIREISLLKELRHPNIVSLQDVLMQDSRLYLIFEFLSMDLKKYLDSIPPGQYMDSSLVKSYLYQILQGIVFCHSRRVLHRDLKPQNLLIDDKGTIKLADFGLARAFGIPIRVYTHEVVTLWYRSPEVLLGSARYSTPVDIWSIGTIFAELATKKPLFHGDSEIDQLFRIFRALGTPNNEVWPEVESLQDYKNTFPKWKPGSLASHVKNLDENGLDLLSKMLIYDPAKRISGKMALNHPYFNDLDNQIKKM
CDK1/CyclinB (h), sequence (P14635 whole entry partner): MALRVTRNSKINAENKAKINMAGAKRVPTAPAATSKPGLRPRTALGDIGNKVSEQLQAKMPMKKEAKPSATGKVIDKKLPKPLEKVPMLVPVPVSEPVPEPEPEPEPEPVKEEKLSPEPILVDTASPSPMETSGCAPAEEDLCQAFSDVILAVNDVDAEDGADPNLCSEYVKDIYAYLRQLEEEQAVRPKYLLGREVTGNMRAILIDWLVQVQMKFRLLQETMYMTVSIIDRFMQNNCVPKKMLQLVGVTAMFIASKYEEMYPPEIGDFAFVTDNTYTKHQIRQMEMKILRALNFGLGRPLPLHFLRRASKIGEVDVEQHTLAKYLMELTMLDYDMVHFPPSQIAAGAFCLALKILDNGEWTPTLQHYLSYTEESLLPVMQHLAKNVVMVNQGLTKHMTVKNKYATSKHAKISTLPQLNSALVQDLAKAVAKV
GSK3β (h), sequence (P49841 whole entry): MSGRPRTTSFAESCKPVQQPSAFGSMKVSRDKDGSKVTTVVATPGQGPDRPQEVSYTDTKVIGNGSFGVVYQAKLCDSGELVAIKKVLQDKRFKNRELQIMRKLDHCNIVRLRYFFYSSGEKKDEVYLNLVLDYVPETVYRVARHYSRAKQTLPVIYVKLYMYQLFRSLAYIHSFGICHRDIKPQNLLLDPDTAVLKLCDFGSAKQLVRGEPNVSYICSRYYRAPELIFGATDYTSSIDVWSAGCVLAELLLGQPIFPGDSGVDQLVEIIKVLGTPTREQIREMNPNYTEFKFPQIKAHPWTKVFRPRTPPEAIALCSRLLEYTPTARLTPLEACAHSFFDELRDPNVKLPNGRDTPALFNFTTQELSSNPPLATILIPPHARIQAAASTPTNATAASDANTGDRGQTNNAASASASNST

Structure (SMILES) | IC50 (PLK4 (h)) [µM] | IC50 (AuroraB (h)) [µM] | IC50 (GSK3β (h)) [µM] | IC50 (CDK1/CyclinB (h)) [µM] | IC50 (A2780) [µM] | IC50 (HCT-116) [µM] | IC50 (H1299) [µM] | IC50 (MDA/MB231) [µM] | IC50 (U87MG) [µM] | IC50 (PC-3) [µM] | PLK4 pIC50 (PLK4 (h)) | AuroraB pIC50 (AuroraB (h)) | GSK3B pIC50 (GSK3β (h)) | CDK1 pIC50 (CDK1/CyclinB (h)) | pIC50 A2780 (A2780) | pIC50 HCT-116 (HCT-116) | pIC50 H1299 (H1299) | pIC50 MDA/MB231 (MDA/MB231) | pIC50 U87MG (U87MG) | pIC50 PC-3 (PC-3)
CN1CCNc2ncnc3c2/C(=C/Nc2cccc(c2)OCCCCCC1=O)C(=O)N3 [Compound 39] | 3.72 | 1.26 | 0.282 | 5.62 | > 10 | 3.8 | > 10 | > 10 | 7.94 | > 10 | – | – | – | – | – | – | – | – | – | –
COc1ccc2cc1CN(C)CC(=O)N(C)CCCCNc1ncnc3c1/C(=C/N2)C(=O)N3 [Compound 153] | 2.57 | > 10 | 1.62 | > 10 | > 10 | > 10 | > 10 | > 10 | > 10 | > 10 | – | – | – | – | – | – | – | – | – | –
CN1CCCCCCC(=O)NCCN(C)c2ncnc3c2/C(=C/Nc2cccc(c2)C1)C(=O)N3 [Compound 54] | > 10 | > 10 | > 10 | > 10 | > 10 | > 10 | > 10 | > 10 | > 10 | > 10 | – | – | – | – | – | – | – | – | – | –
COc1cc2cc(c1OC)CN(C)CC(=O)N(C)CCCNc1ncnc3c1/C(=C/N2)C(=O)N3 [Compound 125] | > 10 | > 10 | 9.77 | > 10 | > 10 | > 10 | > 10 | > 10 | > 10 | > 10 | – | – | – | – | – | – | – | – | – | –
COc1cc2cc(c1OC)OCCCC(=O)N(C)CCNc1ncnc3c1/C(=C/N2)C(=O)N3 [Compound 132] | 0.417 | > 10 | > 10 | > 10 | > 10 | 0.912 | > 10 | > 10 | > 10 | > 10 | – | – | – | – | – | – | – | – | – | –
CN1CCNC(=O)CCCCCCOc2cccc(c2)N/C=C2\C(=O)Nc3ncnc1c32 [Compound 36] | 2.24 | > 10 | 2 | > 10 | > 10 | > 10 | > 10 | > 10 | > 10 | > 10 | – | – | – | – | – | – | – | – | – | –
COc1ccc2cc1OCCCCCCC(=O)NCCN(C)c1ncnc3c1/C(=C/N2)C(=O)N3 [Compound 47] | 2.29 | 8.71 | 4.79 | > 10 | > 10 | > 10 | > 10 | > 10 | > 10 | > 10 | – | – | – | – | – | – | – | – | – | –
CN1CCN(c2ccc3cc2OCCCCC(=O)N(C)CCNc2ncnc4c2C(=CN3)C(=O)N4)CC1 (mixture of isomers) [Compound 135] | – | – | – | – | – | – | – | – | – | – | 6.67 | <5 | 6.2 | <5 | <5 | 5.21 | 5.31 | <5 | <5 | <5
COc1cc2cc(c1OC)OCCCCC(=O)N(C)CCCNc1ncnc3c1C(=CN2)C(=O)N3 (mixture of isomers) [Compound 134] | – | – | – | – | – | – | – | – | – | – | 6.6 | 6.59 | 5.35 | 5.68 | 5.07 | 5.79 | 5.76 | 5.03 | <5 | 5.44
CN1CCCNc2ncnc3c2C(=CNc2ccc(N4CCOCC4)c(c2)OCCCC1=O)C(=O)N3 (mixture of isomers) [Compound 124] | – | – | – | – | – | – | – | – | – | – | 7.34 | 6.13 | 7.33 | 7.53 | 5.94 | 6.21 | 6.89 | 5.37 | 6.16 | 6.02
COc1ccc2cc1OCCCC(=O)N(C(C)C)CCCNc1ncnc3c1C(=CN2)C(=O)N3 (mixture of isomers) [Compound 144] | – | – | – | – | – | – | – | – | – | – | 7.03 | 7.25 | 7.32 | 6.12 | 5.87 | 6.32 | 6.56 | 5.92 | 5.89 | 6.14
COc1cc2cc(c1OC)OCC(=O)N(C)CCCCNc1ncnc3c1C(=CN2)C(=O)N3 (mixture of isomers) [Compound 150] | – | – | – | – | – | – | – | – | – | – | <5 | 5.23 | <5 | <5 | <5 | <5 | <5 | <5 | <5 | <5
COc1ccc2cc1CN(C)CCCCC(=O)NCCN(C)c1ncnc3c1/C(=C/N2)C(=O)N3 [Compound 51] | > 10 | > 10 | > 10 | > 10 | > 10 | > 10 | > 10 | > 10 | > 10 | > 10 | – | – | – | – | – | – | – | – | – | –
CN1CCN(c2ccc3cc2OCCCCCC(=O)N(C)CCCNc2ncnc4c2C(=CN3)C(=O)N4)CC1 (mixture of isomers) [Compound 138] | – | – | – | – | – | – | – | – | – | – | 6.74 | <5 | 6.75 | 5.8 | 5.16 | 5.52 | <5 | <5 | 6.05 | <5
CN1CCCN(C)c2ncnc3c2/C(=C/Nc2cccc(c2)OCCCCCCC1=O)C(=O)N3 [Compound 53] | 2.34 | > 10 | 0.794 | > 10 | > 10 | > 10 | > 10 | > 10 | > 10 | > 10 | – | – | – | – | – | – | – | – | – | –
COc1ccc2cc1OCCCCCC(=O)NCCN(C)c1ncnc3c1C(=CN2)C(=O)N3 (mixture of isomers) [Compound 46] | – | – | – | – | – | – | – | – | – | – | 5.18 | 5.13 | 5.07 | <5 | <5 | <5 | <5 | <5 | 5.04 | <5
COc1ccc2cc1OCC(=O)N(C)CCCCNc1ncnc3c1/C(=C/N2)C(=O)N3 [Compound 151] | 3.47 | 2.88 | 0.933 | > 10 | > 10 | > 10 | > 10 | > 10 | > 10 | > 10 | – | – | – | – | – | – | – | – | – | –
CN1CCNc2ncnc3c2/C(=C/Nc2cccc(c2)CN(C)CC(=O)N(C)CC1)C(=O)N3 [Compound 149] | 5.01 | > 10 | 0.302 | > 10 | > 10 | > 10 | > 10 | > 10 | > 10 | > 10 | – | – | – | – | – | – | – | – | – | –
